In patent US11912693B2, “Compounds for modulating S1P1 activity and methods of using the same” (TREVENA, INC., priority 2017, dated 2024):

Columns and labels:
[1] = biological target: T1, human sphingosine-1-phosphate receptor 1 (S1P1) (Homo sapiens (Human), UniProt P21453); test: β-Arrestin2 recruitment assay (PathHunter), S1P1 CHO-K1 cells; type: cell-based; details: for Emax: CHO-K1, efficacy (SPAN) normalized to fingolimod, read-out: hS1P1 B-arrestin2 SPAN; for hS1P1 B-arrestin2 pEC50: β-arrestin2 recruitment, S1P1 CHO-K1 cells
In short: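 Enzyme-fragment complementation read-out: agonist-driven β-arrestin2 binding to ProLink-tagged human S1P1 in stable CHO-K1 cells restores β-galactosidase, measured 1 h at room temperature after a 60 min 37° C. compound incubation. Potency as pEC50, efficacy relative to fingolimod (SPAN).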
Target sequence in this assay (P21453 whole entry, looked up, the tested form may be a part): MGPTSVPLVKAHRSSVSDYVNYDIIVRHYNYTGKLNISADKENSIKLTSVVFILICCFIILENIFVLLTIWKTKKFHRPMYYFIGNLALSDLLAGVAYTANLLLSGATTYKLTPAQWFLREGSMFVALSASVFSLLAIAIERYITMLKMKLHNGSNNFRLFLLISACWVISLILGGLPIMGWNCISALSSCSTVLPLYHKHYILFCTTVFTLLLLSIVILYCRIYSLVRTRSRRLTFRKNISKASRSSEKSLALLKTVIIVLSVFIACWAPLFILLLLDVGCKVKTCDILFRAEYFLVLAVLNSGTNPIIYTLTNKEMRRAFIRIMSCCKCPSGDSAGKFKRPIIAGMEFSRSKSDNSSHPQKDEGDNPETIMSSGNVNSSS
Target sequence in this assay (P32121 whole entry partner, looked up, the tested form may be a part): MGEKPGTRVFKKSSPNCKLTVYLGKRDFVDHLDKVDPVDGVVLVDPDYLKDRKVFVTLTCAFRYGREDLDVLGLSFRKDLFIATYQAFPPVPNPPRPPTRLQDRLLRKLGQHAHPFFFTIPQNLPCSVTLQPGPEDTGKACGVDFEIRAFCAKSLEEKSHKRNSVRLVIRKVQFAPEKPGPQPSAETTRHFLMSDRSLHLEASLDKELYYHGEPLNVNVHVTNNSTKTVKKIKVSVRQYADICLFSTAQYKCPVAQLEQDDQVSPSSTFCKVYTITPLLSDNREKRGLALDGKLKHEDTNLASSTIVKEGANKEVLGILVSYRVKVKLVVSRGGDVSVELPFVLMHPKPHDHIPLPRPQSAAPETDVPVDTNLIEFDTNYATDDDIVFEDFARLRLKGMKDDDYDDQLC

[2] = biological target: T1, human sphingosine-1-phosphate receptor 1 (S1P1); test: Inhibition of cAMP production (HTRF cAMP HiRange), S1P1 CHO-K1 cells; type: cell-based; details: for Emax: CHO-K1, efficacy (SPAN) normalized to fingolimod, read-out: hS1P1 cAMP SPAN; for hS1P1 cAMP pEC50: inhibition of cAMP production, S1P1 CHO-K1 cells
In short: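 CHO-K1 cells stably co-expressing human S1P1 (C-terminal Prolink tag) and EA-β-arrestin2 were grown in AssayComplete Media 6 at 37° C. and 5% CO2, plated, and incubated overnight. Agonist-driven inhibition of intracellular cAMP was read by TR-FRET with the HTRF cAMP HiRange kit on a PheraStar reader. Potency is pEC50, and efficacy (SPAN) is normalized to fingolimod.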
Target sequence in this assay (P21453 whole entry, looked up, the tested form may be a part): as the sequence (P21453 whole entry, looked up, the tested form may be a part) above

| Emax [1] | hS1P1 B-arrestin2 pEC50 [1] | Emax [2] | hS1P1 cAMP pEC50 [2] | SMILES |
| --- | --- | --- | --- | --- |
| > 75% | >5 | > 75% | >6.5 | N#Cc1cc(-c2nc(-c3ccc4sc(N)nc4c3)no2)ccc1NCC1CC1 [Compound 440, 5-(3-(2-aminobenzo[d]thiazol-5-yl)-1,2,4-oxadiazol-5-yl)-2-((cyclopropylmethyl)amino)benzonitrile] |
| > 75% | >5 | > 75% | >6.5 | CC(C)Nc1ccc(-c2nc(-c3ccc4sc(N)nc4c3)no2)cc1C#N [Compound 441, 5-(3-(2-aminobenzo[d]thiazol-5-yl)-1,2,4-oxadiazol-5-yl)-2-(isopropylamino)benzonitrile] |
| < 75% | <5 | < 75% | <6.5 | CCC1(CC)CC(=O)c2cc(-c3nc(-c4ccc5sc(N)nc5c4)no3)ccc2O1 [Compound 446, 6-(3-(2-aminobenzo[d]thiazol-5-yl)-1,2,4-oxadiazol-5-yl)-2,2-diethylchroman-4-one] |
|  | >5 |  | >6.5 | Cc1cccc2oc(-c3ccc4c(c3)nnn4CC(C)C)nc12 [Compound 447, 2-(1-isobutyl-1H-benzo[d][1,2,3]triazol-5-yl)-4-methylbenzo[d]oxazole] |
|  | <5 |  | <6.5 | Cc1ccc2nc(-c3ccc4c(c3)nnn4CC(C)C)oc2c1 [Compound 448, 2-(1-isobutyl-1H-benzo[d][1,2,3]triazol-5-yl)-6-methylbenzo[d]oxazole] |
|  | <5 |  | <6.5 | Cc1cccc2nc(-c3ccc4c(c3)nnn4CC(C)C)oc12 [Compound 449, 2-(1-isobutyl-1H-benzo[d][1,2,3]triazol-5-yl)-7-methylbenzo[d]oxazole] |
| > 75% | >5 | > 75% | >6.5 | COc1cccc2oc(-c3ccc4c(c3)nnn4CC(C)C)nc12 [Compound 450, 2-(1-isobutyl-1H-benzo[d][1,2,3]triazol-5-yl)-4-methoxybenzo[d]oxazole] |
| < 75% | >5 | < 75% | >6.5 | COc1ccc2oc(-c3ccc4c(c3)nnn4CC(C)C)nc2c1 [Compound 451, 2-(1-isobutyl-1H-benzo[d][1,2,3]triazol-5-yl)-5-methoxybenzo[d]oxazole] |
| < 75% | >5 | > 75% | <6.5 | COc1ccc2nc(-c3ccc4c(c3)nnn4CC(C)C)oc2c1 [Compound 452, 2-(1-isobutyl-1H-benzo[d][1,2,3]triazol-5-yl)-6-methoxybenzo[d]oxazole] |
|  | >5 |  | >6.5 | CC(C)Cn1nnc2cc(-c3nc4c(Cl)cccc4o3)ccc21 [Compound 453, 4-chloro-2-(1-isobutyl-1H-benzo[d][1,2,3]triazol-5-yl)benzo[d]oxazole] |
|  | >5 |  | >6.5 | CC(C)Cn1nnc2cc(-c3nc4cccc(Br)c4o3)ccc21 [Compound 454, 7-bromo-2-(1-isobutyl-1H-benzo[d][1,2,3]triazol-5-yl)benzo[d]oxazole] |
| > 75% | <5 | > 75% | >6.5 | CC(C)n1nnc2cc(-c3nc4c(o3)CCc3sccc3-4)ccc21 [Compound 456, 4-[1-(propan-2-yl)-1H-1,2,3-benzotriazol-5-yl]-5-oxa-10-thia-3-azatricyclo[7.3.0.0^2,6]dodeca-1(9),2(6),3,11-tetraene] |
| > 75% | <5 | > 75% | >6.5 | CC(C)n1nnc2cc(-c3nc4c(ccc5sccc54)o3)ccc21 [Compound 457, 4-[1-(propan-2-yl)-1H-1,2,3-benzotriazol-5-yl]-5-oxa-10-thia-3-azatricyclo[7.3.0.0^2,6]dodeca-1(9),2(6),3,7,11-pentaene] |
| < 75% | <5 | < 75% | <6.5 | CC(=O)Nc1ccccc1-c1coc(-c2ccc3c(c2)nnn3C(C)C)n1 [Compound 458, N-(2-{2-[1-(propan-2-yl)-1H-1,2,3-benzotriazol-5-yl]-1,3-oxazol-4-yl}phenyl)acetamide] |
| > 75% | <5 | > 75% | <6.5 | CC(C)n1nnc2cc(-c3nc(-c4cccs4)co3)ccc21 [Compound 459, 1-(propan-2-yl)-5-[4-(thiophen-2-yl)-1,3-oxazol-2-yl]-1H-1,2,3-benzotriazole] |
| > 75% | <5 | > 75% | <6.5 | CC(C)(O)Cn1nnc2cc(-c3nc(-c4ccncc4C(F)(F)F)no3)ccc21 [Compound 460, 2-methyl-1-(5-{3-[3-(trifluoromethyl)pyridin-4-yl]-1,2,4-oxadiazol-5-yl}-1H-1,2,3-benzotriazol-1-yl)propan-2-ol] |
| > 75% | <5 | > 75% | <6.5 | CC(C)Cn1nnc2cc(-c3nc4c(Br)cccc4o3)ccc21 [Compound 461, 4-bromo-2-(1-isobutyl-1H-benzo[d][1,2,3]triazol-5-yl)benzo[d]oxazole] |
| > 75% | <5 | > 75% | >6.5 | CC(C)n1nnc2cc(-c3nc4c(o3)COc3ccccc3-4)ccc21 [Compound 462, 5-{4H-chromeno[4,3-d][1,3]oxazol-2-yl}-1-(propan-2-yl)-1H-1,2,3-benzotriazole] |
|  | <5 |  | >6.5 | CCC1(CC)CC(=O)c2cc(-c3nc(-c4ccc[nH]4)no3)ccc2O1 [Compound 464, 6-(3-(1H-pyrrol-2-yl)-1,2,4-oxadiazol-5-yl)-2,2-diethylchroman-4-one] |
|  | >5 |  | >6.5 | CCC1(CC)CC(=O)c2cc(-c3nc(-c4ccco4)no3)ccc2O1 [Compound 465, 2,2-diethyl-6-(3-(furan-2-yl)-1,2,4-oxadiazol-5-yl)chroman-4-one] |
|  | <5 |  | <6.5 | CCC1(CC)CC(=O)c2cc(-c3nc(-c4cnc[nH]4)no3)ccc2O1 [Compound 466, 6-(3-(1H-imidazol-5-yl)-1,2,4-oxadiazol-5-yl)-2,2-diethylchroman-4-one] |
